Laboratory results: publication PMC3706801 (Alzheimer's Research & Therapy, 2013)

Key:
NT2/D1 cells = experiment: Curcuminoid binding to NT2/D1 cells
Experimental: NT2/D1 cells were grown in 25 cm^2 flasks to a density of about 90% confluence (6 to 8 × 10^6 cells) with 6 ml of Dulbecco's Minimal Essential Medium (DMEM) containing 5% fetal calf serum (FCS). […] The remaining volume consisted of varying ratios of DMEM and mouse serum to generate dose curves with constant curcuminoid and variable serum concentrations. […] Cells were then washed three times in the flasks with 5 mL of 0.9% saline and then scraped into 1 ml of the same solution. The cell suspension was centrifuged at 3,000 × g for one minute and the supernatant removed. The cell pellet was resuspended in 1 ml of 0.6% saline and re-centrifuged. The final pellet was suspended in 0.4 ml of 0.6% saline and mixed with 0.8 ml of acetone. All samples were stored at -20°C for 2 to 16 h and processed for reversed phase chromatography as described above for tissue preparation.

[1] = cited from earlier work
[2] = design: method as in PMID 17340565; settings: i.v. 10 mg/kg in DMA/PEG/dextrose, rats; read-out: initial plasma concentrations; cited from earlier work
[3] = design: method as in PMID 18417733; settings: intramuscular 3 mg/kg, four hours after injection; cited from earlier work
[4] = HP-γ-CD-solubilized, dose curve ~50% BMAX, Figure 9B left
[5] = HP-γ-CD-solubilized, saturating (100% BMAX), 300 μM, no serum, Figure 9B middle
[6] = HP-γ-CD-solubilized, serum competition, 95% serum, Figure 9B right
[7] = mouse serum-solubilized, dose curve ~50% BMAX, Figure 9A left
[8] = mouse serum-solubilized, saturating (100% BMAX), 200 μM, 5% serum, Figure 9A middle
[9] = mouse serum-solubilized, serum competition, 100% serum, Figure 9A right

Compound | relative contribution to cell-bound curcuminoids (percentage of the total) (NT2/D1 cells; [4]) | relative contribution to cell-bound curcuminoids (percentage of the total) (NT2/D1 cells; [5]) | relative contribution to cell-bound curcuminoids (percentage of the total) (NT2/D1 cells; [6]) | relative contribution to cell-bound curcuminoids (percentage of the total) (NT2/D1 cells; [7]) | relative contribution to cell-bound curcuminoids (percentage of the total) (NT2/D1 cells; [8]) | relative contribution to cell-bound curcuminoids (percentage of the total) (NT2/D1 cells; [9]) | plasma levels after oral administration [1] | C0 [2] | brain levels [3]
bisdemethoxycurcumin [BDMC] | 35% | 48% | 26% | 27% | 15% | 15% |  |  | 
curcumin | 42% | 28% | 55% | 49% | 61% | 65% | ≤ 1 µM | ~27 µM | approximately 3.2 nmol/g
COc1cc(/C=C/C(O)=C/C(=O)/C=C/c2ccc(O)cc2)ccc1O [DMC, demethoxycurcumin] | 23% | 24% | 19% | 24% | 24% | 20% |  |  | 
